Each structure is given as a SMILES string. “Also recorded” adds a separate entry of the source. Some results are limits rather than exact numbers.

The values below come from PMC9115881, “Penicillin Derivatives Inhibit the SARS-CoV-2 Main Protease by Reaction with Its Nucleophilic Cysteine” (Journal of Medicinal Chemistry, 2022).

For experiment [1], the target named is T1, SARS-CoV-2 M^pro (Severe acute respiratory syndrome coronavirus 2, UniProt P0DTD1). In words: SPE-MS M^pro inhibition assay, 11mer peptide substrate. It counts as biochemical.
The target in experiment [2] is T1, SARS-CoV-2 M^pro. Nature of the experiment: Cocrystallization with M^pro, crystal structure. The settings on record: 2.0 Å resolution, PDB 7Z59. From the text: To investigate the mode of M^pro inhibition by penicillin derivatives, we carried out crystallographic studies and obtained a structure of M^pro complexed with a penicillin sulfone 20e-derived ligand following cocrystallization (C2 space group, 2.0 Å resolution; Supporting Information Figure S7). The structure was solved by molecular replacement using a reported M^pro structure (PDB ID: 6YB7([29])) as a search model. The overall fold of the structure is similar to those previously reported for M^pro (RMSD = 0.41 Å for M^pro complexed with PF-07321332 (8, nirmatrelvir; PDB ID: 7VH8);[68] Supporting Information Figure S7).
A frozen SARS-CoV-2 M^pro solution was thawed and diluted to 6 mg/mL (using 20 mM HEPES, pH 7.5, 50 mM NaCl). β-Lactam 20e was added to the protein solution to a final concentration of 10 mM; the mixture was incubated for 2 h at ambient temperature prior to dispensing the plates. The drop composition was: 0.15 μL protein–ligand solution, 0.3 μL 11%v/v PEG 4000, 0.1 M MES, pH 6.5, and 0.05 μL M^pro crystal seed stock. A M^pro crystal seed stock was prepared by crushing M^pro crystals with a pipette tip, suspending them in 30% PEG 4000, 5%v/v DMSO, 0.1 M MES pH 6.5, and vortexing for 60 s with approximately 10 glass beads (1.0 mm diameter, BioSpec products). The reservoir solution was: 11%v/v PEG 4K, 5%v/v DMSO, 0.1 M MES, pH 6.5. […]

For experiment [3], the target named is T1, SARS-CoV-2 M^pro. In words: Protein-observed M^pro assay (SPE-MS), covalent modification. It counts as binding. The settings on record: M^pro 2.0 μM, inhibitor 11 or 33 μM, 45 min. On the procedure: Selected compounds were tested for reaction with M^pro using protein-observed MS to inform on their mechanism of inhibition (Figure 2). Initially, M^pro was incubated with a ∼6-fold excess of the penicillin sulfone ester for 45 min and then analyzed by MS. […] When the inhibitor concentration was increased to ∼17-fold to account for the possibility of modifying all 12 M^pro cysteine or other residues, only low levels of a second covalent M^pro modification by the inhibitors were observed (Figure 2A–C). No evidence for fragmentation of the inhibitors once bound to M^pro was accrued.
Solutions of the inhibitors (100% DMSO) were dry-dispensed across 384-well polypropylene assay plates (Greiner) (for 11 or 33 μM top concentrations) using an ECHO 550 acoustic dispenser (Labcyte). DMSO was used as a negative control. Each reaction was performed in technical duplicates. The enzyme mixture (50 μL/well), containing M^pro (2.0 μM) in buffer (20 mM HEPES, pH 7.5), was dispensed across the penicillin-containing 384-well assay plates with a multidrop dispenser (Thermo Fischer Scientific). The reaction mixture was incubated for 45 min at 20 °C under an ambient atmosphere prior to analysis by SPE-MS.
MS analyses were performed using a RapidFire RF 365 high-throughput sampling robot (Agilent) attached to an iFunnel Agilent 6550 accurate mass Q-TOF mass spectrometer using a C4 cartridge and the same parameters as described above, with the exception of the gas temperature that was reduced to 225 °C. Protein spectra were deconvoluted for the m/z range 850–1350 Da, with a resolution of 2 Da and with a 10–60 kDa cutoff using the MaxEnt1 function in Agilent MassHunter Version 7. The deconvoluted files were extracted as csv files, sorted using Enthought Canopy GUI, and normalized and plotted using GraphPad Prism 9.

In experiment [4] the target is T2, active site (Cys145) TPCK-blocked M^pro (Severe acute respiratory syndrome coronavirus 2, UniProt P0DTD1).
T2 construct: employing SARS-CoV-2 M^pro (2.0 μM); made in house
In words: Protein-observed M^pro assay after preincubation with TPCK. In kind it is binding, SARS-CoV-2. The settings on record: M^pro 2.0 μM preincubated with TPCK 10 μM for 180 min, then inhibitor 60 min.

The target of experiment [5] is T1, SARS-CoV-2 M^pro. In words: biochemical. It counts as biochemical. The settings on record: for IC50: 37mer substrate 2.0 μM, mean ± SD, n ≥ 2, read-out: IC50.
The target in experiment [6] is T1, SARS-CoV-2 M^pro. The settings on record: earlier SPE-MS M^pro assay; cited from earlier work.
The mark [7] stands for this setting: Table 3, compounds 25c, 25g: 11mer peptide as substrate, M^pro […], substrate 2.0 μM, read-out: IC50.
Setting [8] is: Table 1, compounds 15, 16: 11mer peptide as substrate, M^pro […], substrate 2.0 μM, read-out: IC50.

Take `CCN1CCC(NC(=O)N[C@@H](C(=O)N[C@@H]2C(=O)N3[C@@H](C(=O)OCc4ccccc4)C(C)(C)S(=O)(=O)[C@H]23)c2ccccc2)C(=O)C1=O` (stereo partly shown) [Compound 25g]: on SARS-CoV-2 M^pro [1] (setting [7]), the IC50 was greater than 50 µM.
Regarding `CC1(C)[C@H](C(=O)OCc2ccc(F)cc2F)N2C(=O)[C@@H](NC(=O)COc3ccccc3)[C@H]2S1(=O)=O` [Compound 20e], the “covalent modification seen in the crystal structure” value at SARS-CoV-2 M^pro [2] is “active site Cys145 S-acylation”.
As for `C#CCOC(=O)[C@@H]1N2C(=O)[C@@H](NC(=O)COc3ccccc3)[C@H]2S(=O)(=O)C1(C)C` [Compound 20q], the “covalent modification of M^pro by protein-observed MS” value (“covalent modification of M^pro” below) on SARS-CoV-2 M^pro [3] was “covalent reaction with Cys145; also recorded: covalent reaction with a single nucleophilic protein residue; also recorded: clear evidence for the covalent reaction”. Further, the “covalent reaction with TPCK-pretreated M^pro by protein-observed MS” value in experiment [4] was “reaction is ablated by pretreatment of M^pro with the active site binding inhibitor TPCK; also recorded: do not efficiently react covalently”. Besides, the IC50 at SARS-CoV-2 M^pro [5] (Table 2, M^pro […]) was determined as 3 ± 0.4 µM.
On to `Cc1onc(-c2c(Cl)cccc2Cl)c1C(=O)N[C@@H]1C(=O)N2[C@@H](C(=O)OCc3ccccc3)C(C)(C)S(=O)(=O)[C@H]12` [Compound 25c], for which the IC50 on SARS-CoV-2 M^pro [1] (setting [7]) is greater than 50 µM.
As for `CC1(C)[C@H](C(=O)OCc2ccccc2)N2C(=O)[C@@H](NC(=O)Cc3ccccc3)[C@H]2S1(=O)=O` [Compound 11, penicillin G sulfone benzyl ester], the “M^pro inhibition, reported result in words” value on SARS-CoV-2 M^pro [6] is “inactive”. Besides, at SARS-CoV-2 M^pro [5] (SPE-MS inhibition assay), the “M^pro inhibition, result in words” value is “did not inhibit M^pro”. In addition, at SARS-CoV-2 M^pro [5] (Table 3, M^pro […]), the IC50 was greater than 50 µM.
Take `CC1(C)[C@H](C(=O)OCc2ccc([N+](=O)[O-])cc2)N2C(=O)C(Br)(Br)[C@H]2[S+]1[O-]` (stereo partly drawn) [Compound 32, 6,6-dibromopenicillaic acid (R)-sulfoxide para-nitrobenzyl ester]: at SARS-CoV-2 M^pro [3], the “covalent modification of M^pro” value is “initial covalent M^pro binding is followed by rapid subsequent reaction to give new species”. The IC50 on SARS-CoV-2 M^pro [5] (Table 4, M^pro 0.15 μM) was roughly 0.6 µM.
On to `CC1(C)[C@H](C(=O)OCc2ccccc2)N2C(=O)[C@@H](NC(=O)COc3ccccc3)[C@H]2S1(=O)=O` [Compound 10, penicillin V sulfone benzyl ester], for which the “covalent modification of M^pro” value at SARS-CoV-2 M^pro [3] is recorded as “covalent reaction with Cys145; also recorded: covalent reaction with a single nucleophilic protein residue; also recorded: clear evidence for the covalent reaction”. In experiment [4], the “covalent reaction with TPCK-pretreated M^pro by protein-observed MS” value was “reaction is ablated by pretreatment of M^pro with the active site binding inhibitor TPCK; also recorded: do not efficiently react covalently”. For the same compound, the concentration for half-maximal inhibition (IC50) on SARS-CoV-2 M^pro [1] (Table S1, M^pro 0.15 μM, TSAVLQ/SGFRK-NH2 2.0 μM, technical duplicates n = 2, mean ± SD, read-out: IC50 [μM] (11mer peptide)) came to 8.7 ± 0.2 µM; on SARS-CoV-2 M^pro [5] (Table 1, M^pro […], 15 min preincubation) it was 6.6 ± 2.7 µM; at SARS-CoV-2 M^pro [5] (Table 3, M^pro […]) it was 6.6 ± 2.7 µM. Also, the “M^pro inhibition, reported result in words” value on SARS-CoV-2 M^pro [6] is “inhibits M^pro by reaction with the active site cysteine residue”.
Take `CC1(C)[C@H](C(=O)O)N2C(=O)C[C@H]2S1(=O)=O` [Compound 33, sulbactam, reference compound]: the “M^pro inhibition, reported result in words” value on SARS-CoV-2 M^pro [6] is reported as “inability of sulbactam to inhibit M^pro”.
`CC1(C)[C@H](C(=O)OCc2ccccc2)N2C(=O)[C@H](NC(=O)COc3ccccc3)[C@H]2[S@@+]1[O-]` [Compound 15, (6S)-penicillin V (S)-sulfoxide benzyl ester]: at SARS-CoV-2 M^pro [1] (setting [8]), the IC50 is greater than 50 µM.
Same read-out and setting: to `CC1(C)[C@H](C(=O)OCc2ccccc2)N2C(=O)[C@H](NC(=O)COc3ccccc3)[C@H]2S1(=O)=O` [Compound 16, (6S)-penicillin V sulfone benzyl ester] belongs greater than 50 µM.
Take `CCOC(=O)[C@@H]1N2C(=O)[C@@H](NC(=O)COc3ccccc3)[C@H]2S(=O)(=O)C1(C)C` [Compound 20p]: the “covalent modification of M^pro” value at SARS-CoV-2 M^pro [3] is recorded as “covalent reaction with Cys145”. Further, at SARS-CoV-2 M^pro [5] (Table 2, M^pro […]), the IC50 came out at 5.2 ± 0.6 µM.
